{
  "source": "patent US8192962B2",
  "about": "“Processes for detecting toxic substances” (Daikin Industries, Ltd., priority 2001, dated 2012)",
  "tested_on": "Transport facilitation protein genes",
  "experiment": "DNA chip mRNA expression in yeast, transport facilitation protein genes (Table 5)",
  "format": "cell-based, Saccharomyces cerevisiae S288C",
  "procedure,_shortened": "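S. cerevisiae S288C grown at 25° C in YPD were exposed in log phase for two hours to one toxic chemical at a growth-inhibiting, non-lethal concentration; untreated cells served as control. Poly(A) mRNA was reverse-transcribed with Cy3/Cy5-dUTP and hybridized to a whole-genome yeast DNA chip at 65° C for over 12 hours; values are fluorescence ratios versus untreated.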",
  "data": [
    {"smiles": "O=[N+]([O-])c1cc[n+]([O-])c2ccccc12", "note": "[(5), 4-nitroquinolin-N-oxide]", "values": [
      {"measurement": "The level of expressed mRNA in the presence of chemical substance/The level of expressed mRNA in the absence of chemical substance", "setting": "yeast gene YBL030C", "value": 0.7},
      {"measurement": "The level of expressed mRNA in the presence of chemical substance/The level of expressed mRNA in the absence of chemical substance", "setting": "yeast gene YBL099W", "value": 1.0},
      {"measurement": "The level of expressed mRNA in the presence of chemical substance/The level of expressed mRNA in the absence of chemical substance", "setting": "yeast gene YBR052C", "value": 1.4},
      {"measurement": "The level of expressed mRNA in the presence of chemical substance/The level of expressed mRNA in the absence of chemical substance", "setting": "yeast gene YBR068C", "value": 1.4},
      {"measurement": "The level of expressed mRNA in the presence of chemical substance/The level of expressed mRNA in the absence of chemical substance", "setting": "yeast gene YBR127C", "value": 1.4},
      {"measurement": "The level of expressed mRNA in the presence of chemical substance/The level of expressed mRNA in the absence of chemical substance", "setting": "yeast gene YBR132C", "value": 0.8},
      {"measurement": "The level of expressed mRNA in the presence of chemical substance/The level of expressed mRNA in the absence of chemical substance", "setting": "yeast gene YBR207W", "value": 1.7},
      {"measurement": "The level of expressed mRNA in the presence of chemical substance/The level of expressed mRNA in the absence of chemical substance", "setting": "yeast gene YBR293W", "value": 0.8},
      {"measurement": "The level of expressed mRNA in the presence of chemical substance/The level of expressed mRNA in the absence of chemical substance", "setting": "yeast gene YBR294W", "value": 1.4},
      {"measurement": "The level of expressed mRNA in the presence of chemical substance/The level of expressed mRNA in the absence of chemical substance", "setting": "yeast gene YBR295W", "value": 0.8},
      {"measurement": "The level of expressed mRNA in the presence of chemical substance/The level of expressed mRNA in the absence of chemical substance", "setting": "yeast gene YBR298C", "value": 1.4},
      {"measurement": "The level of expressed mRNA in the presence of chemical substance/The level of expressed mRNA in the absence of chemical substance", "setting": "yeast gene YCL025C", "value": 0.9},
      {"measurement": "The level of expressed mRNA in the presence of chemical substance/The level of expressed mRNA in the absence of chemical substance", "setting": "yeast gene YCL038C", "value": 1.2},
      {"measurement": "The level of expressed mRNA in the presence of chemical substance/The level of expressed mRNA in the absence of chemical substance", "setting": "yeast gene YCR024C-A", "value": 0.9},
      {"measurement": "The level of expressed mRNA in the presence of chemical substance/The level of expressed mRNA in the absence of chemical substance", "setting": "yeast gene YCR037C", "value": 1.3},
      {"measurement": "The level of expressed mRNA in the presence of chemical substance/The level of expressed mRNA in the absence of chemical substance", "setting": "yeast gene YCR098C", "value": 1.4},
      {"measurement": "The level of expressed mRNA in the presence of chemical substance/The level of expressed mRNA in the absence of chemical substance", "setting": "yeast gene YDL128W", "value": 1.0},
      {"measurement": "The level of expressed mRNA in the presence of chemical substance/The level of expressed mRNA in the absence of chemical substance", "setting": "yeast gene YDL198C", "value": 0.7},
      {"measurement": "The level of expressed mRNA in the presence of chemical substance/The level of expressed mRNA in the absence of chemical substance", "setting": "yeast gene YDL210W", "value": 0.9},
      {"measurement": "The level of expressed mRNA in the presence of chemical substance/The level of expressed mRNA in the absence of chemical substance", "setting": "yeast gene YDL245C", "value": 1.3},
      {"measurement": "The level of expressed mRNA in the presence of chemical substance/The level of expressed mRNA in the absence of chemical substance", "setting": "yeast gene YDR038C", "value": 0.9},
      {"measurement": "The level of expressed mRNA in the presence of chemical substance/The level of expressed mRNA in the absence of chemical substance", "setting": "yeast gene YDR039C", "value": 1.3},
      {"measurement": "The level of expressed mRNA in the presence of chemical substance/The level of expressed mRNA in the absence of chemical substance", "setting": "yeast gene YDR086C", "value": 1.0},
      {"measurement": "The level of expressed mRNA in the presence of chemical substance/The level of expressed mRNA in the absence of chemical substance", "setting": "yeast gene YDR270W", "value": 1.0},
      {"measurement": "The level of expressed mRNA in the presence of chemical substance/The level of expressed mRNA in the absence of chemical substance", "setting": "yeast gene YDR298C", "value": 1.3},
      {"measurement": "The level of expressed mRNA in the presence of chemical substance/The level of expressed mRNA in the absence of chemical substance", "setting": "yeast gene YDR342C", "value": 1.6},
      {"measurement": "The level of expressed mRNA in the presence of chemical substance/The level of expressed mRNA in the absence of chemical substance", "setting": "yeast gene YDR343C", "value": 1.3},
      {"measurement": "The level of expressed mRNA in the presence of chemical substance/The level of expressed mRNA in the absence of chemical substance", "setting": "yeast gene YDR345C", "value": 1.3},
      {"measurement": "The level of expressed mRNA in the presence of chemical substance/The level of expressed mRNA in the absence of chemical substance", "setting": "yeast gene YDR387C", "value": 0.9},
      {"measurement": "The level of expressed mRNA in the presence of chemical substance/The level of expressed mRNA in the absence of chemical substance", "setting": "yeast gene YDR497C", "value": 0.7},
      {"measurement": "The level of expressed mRNA in the presence of chemical substance/The level of expressed mRNA in the absence of chemical substance", "setting": "yeast gene YEL027W", "value": 1.0},
      {"measurement": "The level of expressed mRNA in the presence of chemical substance/The level of expressed mRNA in the absence of chemical substance", "setting": "yeast gene YEL063C", "value": 1.2},
      {"measurement": "The level of expressed mRNA in the presence of chemical substance/The level of expressed mRNA in the absence of chemical substance", "setting": "yeast gene YEL065W", "value": 1.4},
      {"measurement": "The level of expressed mRNA in the presence of chemical substance/The level of expressed mRNA in the absence of chemical substance", "setting": "yeast gene YER053C", "value": 0.6},
      {"measurement": "The level of expressed mRNA in the presence of chemical substance/The level of expressed mRNA in the absence of chemical substance", "setting": "yeast gene YFL011W", "value": 1.3},
      {"measurement": "The level of expressed mRNA in the presence of chemical substance/The level of expressed mRNA in the absence of chemical substance", "setting": "yeast gene YFL041W", "value": 1.2},
      {"measurement": "The level of expressed mRNA in the presence of chemical substance/The level of expressed mRNA in the absence of chemical substance", "setting": "yeast gene YFL050C", "value": 1.0},
      {"measurement": "The level of expressed mRNA in the presence of chemical substance/The level of expressed mRNA in the absence of chemical substance", "setting": "yeast gene YFL054C", "value": 1.3},
      {"measurement": "The level of expressed mRNA in the presence of chemical substance/The level of expressed mRNA in the absence of chemical substance", "setting": "yeast gene YGL006W", "value": 1.0},
      {"measurement": "The level of expressed mRNA in the presence of chemical substance/The level of expressed mRNA in the absence of chemical substance", "setting": "yeast gene YGL008C", "value": 0.8},
      {"measurement": "The level of expressed mRNA in the presence of chemical substance/The level of expressed mRNA in the absence of chemical substance", "setting": "yeast gene YGL104C", "value": 1.0},
      {"measurement": "The level of expressed mRNA in the presence of chemical substance/The level of expressed mRNA in the absence of chemical substance", "setting": "yeast gene YGL167C", "value": 1.2},
      {"measurement": "The level of expressed mRNA in the presence of chemical substance/The level of expressed mRNA in the absence of chemical substance", "setting": "yeast gene YGL255W", "value": 1.4},
      {"measurement": "The level of expressed mRNA in the presence of chemical substance/The level of expressed mRNA in the absence of chemical substance", "setting": "yeast gene YGR055W", "value": 1.3},
      {"measurement": "The level of expressed mRNA in the presence of chemical substance/The level of expressed mRNA in the absence of chemical substance", "setting": "yeast gene YGR065C", "value": 1.2},
      {"measurement": "The level of expressed mRNA in the presence of chemical substance/The level of expressed mRNA in the absence of chemical substance", "setting": "yeast gene YGR082W", "value": 0.9},
      {"measurement": "The level of expressed mRNA in the presence of chemical substance/The level of expressed mRNA in the absence of chemical substance", "setting": "yeast gene YGR096W", "value": 1.2},
      {"measurement": "The level of expressed mRNA in the presence of chemical substance/The level of expressed mRNA in the absence of chemical substance", "setting": "yeast gene YGR138C", "value": 0.8},
      {"measurement": "The level of expressed mRNA in the presence of chemical substance/The level of expressed mRNA in the absence of chemical substance", "setting": "yeast gene YGR191W", "value": 0.8},
      {"measurement": "The level of expressed mRNA in the presence of chemical substance/The level of expressed mRNA in the absence of chemical substance", "setting": "yeast gene YGR197C", "value": 0.7},
      {"measurement": "The level of expressed mRNA in the presence of chemical substance/The level of expressed mRNA in the absence of chemical substance", "setting": "yeast gene YGR224W", "value": 1.4},
      {"measurement": "The level of expressed mRNA in the presence of chemical substance/The level of expressed mRNA in the absence of chemical substance", "setting": "yeast gene YGR260W", "value": 0.8}
    ]}
  ]
}
